The structures appear in SMILES notation. Starred links: 1 amine or outer side, 2 acyl side, 3 side chain; linkers in the order of their positions; H or OH if unused. Positions of bridges follow the written chain, without caps; N, C: chain ends. Non-standard residues stand in square brackets, D forms with d. Residues, ends and D or L forms follow the SMILES beside them. *: point of attachment. NMeAbu(3,3-F2-piperidino) = CN[C@@H](CCN1CCCC(F)(F)C1)C(=O)O; hPhe(3-Cl-4-CF3) = N[C@@H](CCc1ccc(C(F)(F)F)c(Cl)c1)C(=O)O; hPhe(3-F,4-CF3) = N[C@@H](CCc1ccc(C(F)(F)F)c(F)c1)C(=O)O; hPhe(4-CF3) = N[C@@H](CCc1ccc(C(F)(F)F)cc1)C(=O)O; NMePhe(4-Cl) = CN[C@@H](Cc1ccc(Cl)cc1)C(=O)O; NMePhe(4-Me) = CN[C@@H](Cc1ccc(C)cc1)C(=O)O; X33 = Cc1ccc(CC[C@H](N[*:1])C(=O)[*:2])cc1; NMedβ3hAla = C[C@H](CC(=O)[*:2])N(C)[*:1]; NMeGly(cPent) = CN[C@H](C(=O)O)C1CCCC1; NMeCha = CN[C@@H](CC1CCCCC1)C(=O)O; NMeChg = CN[C@H](C(=O)O)C1CCCCC1; NMeF = CN[C@@H](Cc1ccccc1)C(=O)O; NMeI = CC[C@H](C)[C@H](NC)C(=O)O; NMeD = CN[C@@H](CC(=O)O)C(=O)O; NMeL = CN[C@@H](CC(C)C)C(=O)O; NMeNva = CCC[C@H](NC)C(=O)O; NMeV = CN[C@H](C(=O)O)C(C)C; d(β3hA) = C[C@@H](N)CC(=O)O; NMeAbu = CC[C@H](NC)C(=O)O; Iva = CC[C@](C)(N)C(=O)O; NMeA = CN[C@@H](C)C(=O)O; Piperidide = C1CCN(*)CC1; Pyrrolidide = C1CCN(*)C1; dNMeA = CN[C@H](C)C(=O)O; Ac5c = NC1(C(=O)O)CCCC1; Aze = O=C(O)[C@@H]1CCN1; Thp = NC1(C(=O)O)CCOCC1; NPrGly = CCCNCC(=O)O; Sar = CNCC(=O)O

The test deals with T1, Kras and SOS1 (biotin-tagged human Kras loaded with GDP, His-tagged human SOS1) (Homo sapiens, UniProt P01116, G12D).
T1 construct: made in house; host or cells: E. coli (stated for Kras only)
T1 sequence (P01116 1-188 isoform P01116-2 G12D): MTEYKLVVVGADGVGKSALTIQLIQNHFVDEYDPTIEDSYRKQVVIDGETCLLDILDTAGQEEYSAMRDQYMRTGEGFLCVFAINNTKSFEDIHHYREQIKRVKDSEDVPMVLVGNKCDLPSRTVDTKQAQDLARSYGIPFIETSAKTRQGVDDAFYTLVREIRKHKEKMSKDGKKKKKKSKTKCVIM
Put plainly: Protein-protein interaction inhibition between Kras and SOS1 (KrasGl2D-SOS PPI) using AlphaScreen. Format: binding. The conditions noted are these: AlphaScreen; biotin-tagged human Kras loaded with GDP, His-tagged human SOS1; read-out: KRAS G12D-SOS PPI IC50. An outline of the steps:
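Energy transfer from nickel-chelate donor beads bound to His-SOS1 to streptavidin acceptor beads bound to biotin-Kras, expressed in E. coli and loaded with GDP after purification, was monitored. Donors were excited at 680 nm; singlet oxygen reaching acceptors gave emission read at 520-620 nm.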
Background: Bead proximity is the source of the signal in Alpha formats.
The IC50 is the concentration needed to halve the response being measured. Regarding `CC[C@H](C)[C@@H]1NC(=O)[C@H](CC(C)C)N(C)C(=O)C[C@@H](C(=O)N(C)C)N(C)C(=O)[C@H]([C@@H](C)CC)N(C)C(=O)[C@H](C)NC(=O)[C@@H](C)NC(=O)[C@H](CCc2ccc(C(F)(F)F)c(Cl)c2)NC(=O)CN(C)C(=O)[C@H](Cc2ccc(C)cc2)N(C)C(=O)[C@@H]2CCN2C(=O)[C@H](C)N(C)C1=O` [Compound 382] ([NMeL]I[NMeA][Aze][NMePhe(4-Me)][Sar][hPhe(3-Cl-4-CF3)][dA]A[NMeI][NMeD]-NMe2; lactam N-11), the IC50 was 35 nM.

With `CC[C@H](C)[C@@H]1NC(=O)[C@H](C)N(C)C(=O)C[C@@H](C)NC(=O)[C@H](CC(C)C)N(C)C(=O)[C@H](CC2CCCCC2)N(C)C(=O)[C@@H]2CCCN2C(=O)[C@H](CCc2ccc(C(F)(F)F)cc2)NC(=O)CN(C)C(=O)[C@H](Cc2ccc(Cl)cc2)N(C)C(=O)CN(C)C(=O)CN(C)C1=O` [Compound 383] (cyclo(I[Sar][Sar][NMePhe(4-Cl)][Sar][hPhe(4-CF3)]P[NMeCha][NMeL][d(β3hA)][NMeA])), the IC50 came to 260 nM.

For `CC[C@H](C)[C@@H]1NC(=O)[C@H](CC(C)C)N(C)C(=O)C[C@@H](C(=O)N(C)C)N(C)C(=O)[C@H](C2CCCC2)N(C)C(=O)[C@H](C(C)C)NC(=O)[C@H](CCN2CCCC(F)(F)C2)N(C)C(=O)[C@H](CCc2ccc(C(F)(F)F)c(Cl)c2)NC(=O)CN(C)C(=O)[C@H](CC2CCCCC2)N(C)C(=O)[C@@H]2CCN2C(=O)[C@H](C)N(C)C1=O` [Compound 389] ([NMeL]I[NMeA][Aze][NMeCha][Sar][hPhe(3-Cl-4-CF3)][NMeAbu(3,3-F2-piperidino)]V[NMeGly(cPent)][NMeD]-NMe2; lactam N-11), the IC50 was 45 nM.

As for `CCC[C@H]1C(=O)N[C@@H]([C@@H](C)CC)C(=O)N(C)[C@@H](C)C(=O)N2CC[C@H]2C(=O)N(C)[C@@H](CC2CCCCC2)C(=O)N(C)CC(=O)N[C@@H](CCc2ccc(C(F)(F)F)c(Cl)c2)C(=O)N2CCC[C@H]2C(=O)NC2(CCCC2)C(=O)N(C)[C@@H](C2CCCC2)C(=O)N(C)[C@H](C(=O)N2CCCCC2)CC(=O)N1C` [Compound 391, (5S,8S,11S,15S,18S,23aS,29S,35S,37aS)-8-((S)-sec-butyl)-29-(3-chloro-4-(trifluoromethyl)phenethyl)-35-(cyclohexylmethyl)-18-cyclopentyl-5,6,12,16,19,33,36-heptamethyl-15-(piperidine-1-carbonyl)-11-propyldocosahydro-2H,4H-spiro[azeto[2,1-u]pyrrolo[2,1-i][1,4,7,10,13,16,19,22,25,28,31]undecaazacyclotetratriacontine-21,1′-cyclopentan]-4,7,10,13,17,20,23,28,31,34,37(14H,22H)-undecaone] ([NMeNva]I[NMeA][Aze][NMeCha][Sar][hPhe(3-Cl-4-CF3)]P[Ac5c][NMeGly(cPent)][NMeD]-Piperidide; lactam N-11), the IC50 was determined as 0.4 nM.

`CCC[C@H]1C(=O)NC2(CCCC2)C(=O)N(C)[C@@H](C2CCCCC2)C(=O)N(C)[C@H](C(=O)N2CCCCC2)CC(=O)N(C)[C@@H](CC(C)C)C(=O)N[C@@H]([C@@H](C)CC)C(=O)N(C)CC(=O)N2CCC[C@H]2C(=O)N(C)[C@@H](CC2CCCCC2)C(=O)N(C)CC(=O)N[C@@H](CCc2ccc(C(F)(F)F)c(Cl)c2)C(=O)N1C` [Compound 392] ([NMeL]I[Sar]P[NMeCha][Sar][hPhe(3-Cl-4-CF3)][NMeNva][Ac5c][NMeChg][NMeD]-Piperidide; lactam N-11): the IC50 was found to be 12 nM.

Regarding `CC[C@H](C)[C@@H]1NC(=O)[C@H](CC(C)C)N(C)C(=O)C[C@@H](C(=O)N2CCCCC2)N(C)C(=O)[C@H](C(C)C)N(C)C(=O)[C@](C)(CC)NC(=O)[C@@H]2CCCN2C(=O)[C@H](CCc2ccc(C(F)(F)F)c(Cl)c2)NC(=O)CN(C)C(=O)[C@H](CC2CCCCC2)N(C)C(=O)[C@@H]2CCN2C(=O)[C@H](C)N(C)C1=O` [Compound 394] ([NMeL]I[NMeA][Aze][NMeCha][Sar][hPhe(3-Cl-4-CF3)]P[Iva][NMeV][NMeD]-Piperidide; lactam N-11), the IC50 was determined as 13 nM.

With `CC[C@H](C)[C@@H]1NC(=O)[C@H](C)N(C)C(=O)C[C@@H](C)NC(=O)[C@H](C2CCCC2)N(C)C(=O)C2(CCCC2)NC(=O)[C@@H]2CCCN2C(=O)[C@H](CCc2ccc(C(F)(F)F)c(Cl)c2)NC(=O)[C@@H](C)N(C)C(=O)[C@H](C)N(C)C(=O)[C@@H]2CCN2C(=O)[C@H](C)N(C)C1=O` [Compound 396] (cyclo([Ac5c][NMeGly(cPent)][d(β3hA)][NMeA]I[NMeA][Aze][NMeA][dNMeA][hPhe(3-Cl-4-CF3)]P)), the IC50 is 220 nM.

In the case of `CC[C@H](C)[C@@H]1NC(=O)[C@H](C)N(C)C(=O)C[C@@H](C(=O)N2CCCC2)NC(=O)[C@H](CC(C)C)N(C)C(=O)[C@H](Cc2ccccc2)N(C)C(=O)[C@H](CC(C)C)NC(=O)[C@H](CCc2ccc(C)cc2)NC(=O)CN(C)C(=O)[C@H](Cc2ccc(Cl)cc2)N(C)C(=O)CN(C)C(=O)CN(C)C1=O` [Compound 398] ([NMeA]I[Sar][Sar][NMePhe(4-Cl)][Sar][X33]L[NMeF][NMeL]D-Pyrrolidide; lactam N-11), the IC50 was determined as 120 nM.

Regarding `CC[C@H](C)[C@@H]1NC(=O)[C@H](CC(C)C)N(C)C(=O)C[C@@H](C)NC(=O)[C@H](CC(C)C)N(C)C(=O)C2(CCCC2)NC(=O)[C@@H]2CCCN2C(=O)[C@H](CCc2ccc(C(F)(F)F)c(F)c2)NC(=O)CN(C)C(=O)[C@H](CC2CCCCC2)N(C)C(=O)CN(C)C(=O)CN(C)C1=O` [Compound 402] (cyclo([Ac5c][NMeL][d(β3hA)][NMeL]I[Sar][Sar][NMeCha][Sar][hPhe(3-F,4-CF3)]P)), the IC50 turned out to be 26 nM.

For `CCCN1CC(=O)N(C)[C@@H](CC2CCCCC2)C(=O)N(C)CC(=O)N[C@@H](CCc2ccc(C(F)(F)F)c(Cl)c2)C(=O)N2CCC[C@H]2C(=O)NC2(CCCC2)C(=O)N(C)[C@@H](C(C)C)C(=O)N[C@H](C)CC(=O)N(C)[C@@H](CC(C)C)C(=O)N[C@@H]([C@@H](C)CC)C(=O)N(C)CC1=O` [Compound 405] (cyclo([Ac5c][NMeV][d(β3hA)][NMeL]I[Sar][NPrGly][NMeCha][Sar][hPhe(3-Cl-4-CF3)]P)), the IC50 was 270 nM.

Turning to `CC[C@H](C)[C@@H]1NC(=O)[C@H](CC(C)C)N(C)C(=O)C[C@@H](C)N(C)C(=O)[C@H](CC(C)C)N(C)C(=O)C2(CCOCC2)NC(=O)[C@@H]2CCCN2C(=O)[C@H](CCc2ccc(C(F)(F)F)c(F)c2)NC(=O)CN(C)C(=O)[C@H](CC2CCCCC2)N(C)C(=O)CN(C)C(=O)CN(C)C1=O` [Compound 407] (cyclo(I[Sar][Sar][NMeCha][Sar][hPhe(3-F,4-CF3)]P[Thp][NMeL][NMedβ3hAla][NMeL])), the IC50 worked out at 39 nM.

With `CC[C@H](C)[C@@H]1NC(=O)[C@H](C)N(C)C(=O)C[C@@H](C)NC(=O)[C@H](C2CCCC2)N(C)C(=O)C2(CCCC2)NC(=O)[C@@H]2CCCN2C(=O)[C@H](CCc2ccc(C(F)(F)F)c(Cl)c2)NC(=O)[C@@H](C)N(C)C(=O)[C@H](CC)N(C)C(=O)CN(C)C(=O)CN(C)C1=O` [Compound 413] (cyclo([Ac5c][NMeGly(cPent)][d(β3hA)][NMeA]I[Sar][Sar][NMeAbu][dNMeA][hPhe(3-Cl-4-CF3)]P)), the IC50 was found to be 50 nM.

In the case of `CC[C@H](C)[C@@H]1NC(=O)[C@H](CC(C)C)N(C)C(=O)C[C@@H](C)NC(=O)[C@H](CC(C)C)N(C)C(=O)C2(CCCC2)NC(=O)[C@@H]2CCCN2C(=O)[C@H](CCc2ccc(C(F)(F)F)cc2)NC(=O)CN(C)C(=O)[C@H](CC2CCCCC2)N(C)C(=O)CN(C)C(=O)CN(C)C1=O` [Compound 414] (cyclo([Ac5c][NMeL][d(β3hA)][NMeL]I[Sar][Sar][NMeCha][Sar][hPhe(4-CF3)]P)), the IC50 turned out to be 110 nM.

The values are drawn from patent US12371454B2, “Cyclic peptide compound having Kras inhibitory action” (priority 2019, dated 2025).
